Results on five compounds are retold here after patent publication US20080255121A1, “Combination Drug for Treating Autoimmune Disease” (DAINIPPON SUMITOMO PHARMA CO., LTD., priority 2004, published 2008).

Molecules are shown by their SMILES. Where “and” joins values, the source holds several entries; their conditions need not be identical. Equal entries are not always repeated.

For one data set, the target named is T1, CaMKIIα derived from rat (Rattus norvegicus, UniProt P11275).
T1 construct: purchased Santa Cruz, Inc
T1 sequence (P11275 whole entry): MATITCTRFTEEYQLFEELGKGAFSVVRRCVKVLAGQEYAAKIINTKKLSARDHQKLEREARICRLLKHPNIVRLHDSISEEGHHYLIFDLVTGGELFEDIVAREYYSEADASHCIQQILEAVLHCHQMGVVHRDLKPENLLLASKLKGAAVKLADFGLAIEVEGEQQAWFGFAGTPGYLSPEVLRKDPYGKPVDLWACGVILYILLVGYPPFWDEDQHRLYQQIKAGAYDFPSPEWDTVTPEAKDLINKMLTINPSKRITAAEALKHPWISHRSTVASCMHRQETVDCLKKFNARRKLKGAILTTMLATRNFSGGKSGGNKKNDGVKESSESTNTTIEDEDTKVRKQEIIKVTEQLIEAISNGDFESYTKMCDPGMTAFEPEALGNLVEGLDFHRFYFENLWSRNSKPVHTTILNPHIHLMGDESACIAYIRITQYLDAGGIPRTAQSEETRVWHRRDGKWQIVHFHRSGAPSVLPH
Nature of the data set: Examination of CaMKII inhibitory activity (1), phosphorylation of Autocamtide-2. The data set is classed as biochemical. The procedure: Test substances were dissolved in DMSO and diluted to various concentrations with a buffer solution (50 mM Tris-HCl: pH 7.5, 10 mM MgCl2, 1 mM Dithiothreitol (DTT)) (all of them are available from Nacalai Tesque, Inc.) for CaMKII reaction. CaMKIIα (final concentration 0.75 μg/ml) (Santa Cruz, Inc.) derived from rat was mixed with Autocamtide-2® (40 μM) (CALBIOCHEM Company) dissolved in CaMKII reaction buffer solution in the presence of the test substance and with CaMKII activation buffer solution (1 mMCaCl2, 1 μM calmodulin) (Nacalai Tesque, Inc.) and the reaction was started by further adding ATP (50 μM) (Nacalai Tesque, Inc.). The reaction was performed at 30° C. for five minutes and then SDS-PAGE sample buffer solution was added and the reaction was terminated by boiling for five minutes. Proteins in the reaction mixture were separated by 15% SDS-PAGE and blotted onto a PVDF membrane. Phosphorus taken in by Autocamtide-2 was reacted with an anti-phosphorylated serine/threonine antibody (Santa Cruz, Inc.) and quantified by ECL system (Amersham, Inc.) and NIH Image (downloadable from http://rsb.info.nih.gov/nih-image/).

For data set [1], the system named is mouse type III allergy reaction. As to conditions: reported in Patent Document 4; cited from earlier work.
Data set [2] concerns adjuvant-induced arthritis rats. Nature of the data set: Adjuvant-induced arthritis, therapeutic and prophylactic model. The data set is classed as in vivo, rat. To be noted: Compound (I) 2.5 to 80 mg/kg. The procedure: The adjuvant-induced arthritis model is a representative chronic inflammation model caused in rats, and it is widely used for pharmacological evaluation of antiinflammatory drugs and antirheumatic drugs. Accordingly, effects of Compound (I) and Compound (II) were examined in both therapeutic and prophylactic model. In the therapeutic model, the difference of the volume of a hind leg before and after the dosed period was calculated to examine edema suppression effect by the drug administration and the change of edema volume was examined. In the prophylactic model, the volume of a hind paw was measured over time during the dosed period and the effect of the drug for a long term period was examined. Although the hind paw volume or the edema volume was used as the index of efficacy evaluation, the edema volume means the increment from the normal volume of the hind paw which was not sensitized with the adjuvant, and therefore, the both indices can be used as approximately the same meaning.
A liquid paraffin suspension (1 mg/200 μl) of Mycobacterium butyricum (adjuvant) was subcutaneously injected at the tarsal part of the right hind paw of SD or Lewis rats (both male, six-week old) to cause arthritis. In the therapeutic model, 0.5% methylcellulose suspension of Compound (I) or Compound (II) which was prepared so that the dose was 1 ml per 100 g body weight was orally administered once a day for consecutive five days from the 17th day after the injection of the adjuvant. An indomethacin suspension prepared in the similar way was administered as the positive control. The volume of the hind paws was measured respectively for the right and the left by water replacement method just before the administration and in five hours after the last administration and the difference in the values just before the administration and in five hours after the last administration was calculated and assumed as the change in the edema volume. In the prophylatic model, the compounds were administered once a day for consecutive 21 days after the day when the adjuvant was injected. The volume of the right and left hind paws was measured by water replacement method every other day. In the prophylactic model of Compound (II), a suspension of D-penicillamine, an antirheumatic drug, was administered in the same way as a control.

A further data set relates to adjuvant arthritis rats. To be noted: reported in Patent Documents 3, 4 and Non-Patent Documents 3 to 5; cited from earlier work.
Data set [3] relates to experimental allergic encephalomyelitis mice. Nature of the data set: Experimental allergic encephalomyelitis, Compound (I). The data set is classed as in vivo. The text has this:
The severity of the condition was indicated as a score (disease score) according to the following criteria.
0.5: Slight paralysis of tail
2: Light paralysis of hind paw
3: Medium to intense paralysis of hind paw or light forelimb paralysis
4: Complete paralysis of hind paw or medium to intense paralysis of forelimb
5: Paralysis of four limbs or toward death period
In the prednisolone administered group as a positive control, prednisolone was suspended in 0.5% methylcellulose solution to prepare a liquid of 0.3 mg/ml for administration and 0.1 ml per 10 g mouse weight was orally administered. In a control group, only 0.5% methylcellulose solution was […] administered. The administration was started on the sensitization day and carried out once a day for consecutive 40 days.

Data set [4] concerns adjuvant-induced arthritis rats. Nature of the data set: Combination effect on adjuvant-induced arthritis (Example 19). The data set is classed as in vivo, rat. As to conditions: only methotrexate 0.060 mg/kg oral once a day 17 days. The procedure:
Combination effect for rat adjuvant-induced arthritis was examined in the same manner as in Example 17.
The volume of the left hind paw was measured by water replacement method just before the administration and after the last administration, and AUC (the area under the curve formed by plotting the difference of the value at the time of grouping from the value of each time point during the administration period against the time) of the increased volume of the left hind paw was determined. Joint destruction of the right hind paw (injected paw) and the left hind paw (non-injection paw) can be measured by X-ray and this can be also used as the index to evaluate the combination effect.

Data set [5] has the same test system. Nature of the data set: Combination effect on adjuvant-induced arthritis, joint destruction score by soft X-ray (Example 20). The data set is classed as in vivo, rat. To be noted: Compound (I) 40 mg/kg and/or methotrexate 0.06 mg/kg, maximum 12. The method, then:
Combination effect for adjuvant-induced arthritic rats was examined in the same manner as in Example 17.
Euthanasia was carried out for all the rats by aspiration of high concentration carbon dioxide after the last administration. Both the hind paws were cut off at the middle point of […]. Both the hind paws were fixed with 10% neutral buffered formalin liquid. […] The degree of joint destruction was recorded with a score. Observed sites were three points of the tibia, calcaneum and tarsal bone, and the possible maximum score was 12.
1: Minimum destruction of joints and bones and new formation of cartilages
2: Mild destruction of joints and bones and new formation and light ossification of cartilages
3: Moderate destruction of joints and bones and ossification
4: Severe destruction and deformation of joints and bones and intense ossification

Regarding `CNc1nc(C(C)c2ccc(-c3ccccc3)c(F)c2)cs1` (stereo not shown) [Compound (II), 4-[1-(2-fluorobiphenyl-4-yl)ethyl]-2-(methylamino)thiazole], the “Inhibition rate (%)” value on CaMKIIα derived from rat (Concentration 0.1 μm) is on record as 45%; at CaMKIIα derived from rat (Concentration 1 μm) it was 62%; at CaMKIIα derived from rat (Concentration 10 μm) it was 92%. In addition, the “edema in mouse type III allergy reaction tests” value in data set [1] is reported as “inhibitory effects on edema”. Besides, in data set [2] (prophylactic model, oral once a day for 21 days, Compound (II) 50 mg/kg, FIGS. 8 and 9), the “hind paw volume / edema volume” value was “remarkable edema suppressing effect”. In addition, the “change of edema volume of hind paw” value in data set [2] (therapeutic model, oral once a day for five days from 17th day, Compound (II) 10 to 50 mg/kg, FIGS. 6 and 7) is “remarkable edema suppressing effect”. In addition, the “effects on adjuvant arthritis rats” value in the data set on adjuvant arthritis rats is “anti-arthritis effects”.

For `CC(c1ccc(-c2ccccc2)c(F)c1)c1cc(/N=C(/N)N(C)C)on1.Cl` (stereo not shown) [Compound (Ib), N′-{3-[1-(2-fluorobiphenyl-4-yl)-ethyl]-isoxazol-5-yl}-N,N-dimethyl-guanidine hydrochloride], the “Inhibition rate (%)” value at CaMKIIα derived from rat (Concentration 0.1 μm) was 13%; on CaMKIIα derived from rat (Concentration 1 μm), 42%; on CaMKIIα derived from rat (Concentration 10 μm), 71%.

With `CCN/C(N)=N/c1cc(C(C)c2ccc(-c3ccccc3)c(F)c2)no1.Cl` (stereo not shown) [Compound (Ic), N-ethyl-N′-{3-[1-(2-fluorobiphenyl-4-yl)-ethyl]-isoxazol-5-yl}-guanidine hydrochloride], the “Inhibition rate (%)” value is listed as 11% at CaMKIIα derived from rat (Concentration 0.1 μm), 36% on CaMKIIα derived from rat (Concentration 1 μm) and 68% on CaMKIIα derived from rat (Concentration 10 μm).

Take `C[C@]12C=CC(=O)C=C1CC[C@@H]1[C@@H]2[C@@H](O)C[C@@]2(C)[C@H]1CC[C@]2(O)C(=O)CO` [Prednisolone, prednisolone, reference compound]: the “weight gain (natural accruement of weight by growth)” value in data set [3] (Compound (I) 20 to 80 mg/kg, prednisolone 3 mg/kg, oral once a day 40 days, FIG. 14) is reported as “strongly suppressed natural accruement of weight by growth”. The “Death Rate” value in data set [3] (Dose 3 mg/kg oral once a day 40 days) is on record as 0/10. The “Onset Rate” value in data set [3] (Dose 3 mg/kg oral once a day 40 days, 3 mg/kg) was 2 of 10 and 2/10.

With `CN(Cc1cnc2nc(N)nc(N)c2n1)c1ccc(C(=O)N[C@@H](CCC(=O)O)C(=O)O)cc1` [methotrexate, reference compound], the “increased volume and onset ratio of left hind paw” value in data set [4] was “onset suppressing effect and edema suppressing effect”. In data set [5] (control score 3), the “joint destruction score of the left hind paw, representative individual which showed an average score in the group” value was found to be 2. In addition, in data set [5] (control score 10), the “joint destruction score of the right hind paw, representative individual which showed an average score in the group” value is on record as 9.
